Results taken from patent publication US20220145260A1, “METHOD FOR CULTURING HEPATIC EPITHELIOID TISSUE HAVING A STRUCTURE OF CONNECTIONS BETWEEN HEPATOCYTES AND BILE DUCT EPITHELIAL CELL” (SAPPORO MEDICAL UNIVERSITY, priority 2019, published 2022).

Experiments:
[1] = tested on: hepatic epithelioid tissue (small hepatocytes and bile duct epithelial cells); test: Fluorescein diacetate uptake and flow into bile duct in hepatic epithelioid tissue; type: cell-based, mice; details: hepatic epithelioid tissue 2 weeks after overlaying Matrigel; fluorescence microscopy
Method: After 4 mg/ml of a type I collagen solution was prepared, it was added to wells of a pre-cooled culture plate (manufactured by Greiner Bio-One Co., Ltd.), followed by allowing to stand at 37° C. for 30 to 60 minutes to be gelatinized. Bile duct epithelial cells suspended in a DMEM/F12 medium (manufactured by Sigma Aldrich Co. LLC) containing 10% serum (fetal bovine serum), 1×insulin-transferrin-selenium (ITS), 0.1 μM dexamethasone, 5 ng/ml epidermal growth factor (EGF), and 5 ng/ml hepatocyte growth factor (HGF) were inoculated in a 24-well plate at 5×10^4 cells/well. […] The density in the cultured region of the bile duct epithelial cells in the cultured region was measured with image analysis software (manufactured by Olympus Corporation) by using photographs taken under a microscope. […]
Fluorescein diacetate (FDA) (manufactured by Tokyo Chemical Industry Co., Ltd.) was taken up by the above-mentioned hepatic epithelioid tissue 2 weeks after overlaying Matrigel, and observation was performed with a phase-contrast microscope and a fluorescence microscope. […] FDA is taken by hepatocytes and hydrolyzed to become fluorescein that emits a fluorescence, and then is excreted into the bile canaliculus.

[2] = tested on: hepatic epithelioid tissue (small hepatocytes and bile duct epithelial cells); test: Uptake of bilirubin by the hepatic epithelioid tissue reconstructed ex vivo; type: cell-based, mice; details: 10 μg/ml bilirubin, 3 to 5 days culture; tissue 2 weeks after overlaying Matrigel; Fouchet's reagent staining
[3] = tested on: barrier functions of the epithelial cells in the organoid; test: Release of CLF into the medium by inhibition of cell-cell adhesion (tight junction barrier) with MβCD; type: cell-based, mice
[4] = tested on: coculture of human CLiP and murine bile duct epithelial cells; test: CLF transport in coculture of human reprogramming hepatocytes (hCLiP) and murine BEC; type: cell-based; details: one week after overlaying collagen gel containing 40% Matrigel
Method: In order to produce an organoid reflecting the metabolic functions of humans, coculture of human reprogramming hepatocytes and murine bile duct epithelial cells was performed. Specifically, murine bile duct epithelial cells were cultured on a collagen gel (the amount of collagen contained in the collagen gel: 4 mg/ml) for 5 days, and then CLIP was inoculated. Two days later, human recombinant oncostatin M (hOSM) (manufactured by R&D Systems Inc.) was added, and then 1 day later, a collagen gel containing 40% EHSgel (Matrigel) was overlaid to perform coculture.
(A) It can be seen that the contact surface between murine BEC (the range indicated in red) and human CLIP has been formed during the early stage of coculture (see FIG. 10A). (B) One week after overlaying a collagen gel containing EHSgel (Matrigel), CLF was added.

[5] = tested on: hepatic epithelioid tissue (small hepatocytes and bile duct epithelial cells); test: Transportation of bile acid analog CLF from hepatocytes to the bile duct; type: cell-based, mice; details: after 6 hours; 1 month after overlaying gel

CC(=O)Oc1ccc2c(c1)Oc1cc(OC(C)=O)ccc1C21OC(=O)c2ccccc21 [Fluorescein diacetate]
flow of fluorescein (from FDA hydrolysed in hepatocytes) into the bile duct [1]: fluorescein has flowed into the bile duct

C=CC1=C(C)/C(=C/c2[nH]c(Cc3[nH]c(/C=C4\NC(=O)C(C)=C4C=C)c(C)c3CCC(=O)O)c(CCC(=O)O)c2C)NC1=O [bilirubin]
flow of bilirubin taken up by hepatocytes into bile duct structure [2]: flows into a bile duct structure formed by bile duct epithelial cells

Methyl beta cyclodextrin [MβCD]
concentration dependence of CLF release into the medium ([3]; 25 mM or 75 mM MβCD): release depends on the concentration of MβCD
CLF fluorescence leaked into the medium after MβCD addition ([3]; 25 mM or 75 mM MβCD vs no addition, cells 1 month after addition of EHS-gel): fluorescence was detected in the medium

cholyl lysine fluorescein [CLF]
transport of CLF taken up by human CLiP to murine bile duct tissue [4]: transported to a murine bile duct tissue
transport to the bile duct [5]: transported to the bile duct
